# Assay results published in patent publication US12678438B2, “Treatment of cancer with CDK inhibitors” (THE TRUSTEES OF THE UNIVERSITY OF PENNSYLVANIA, priority 2019, dated 2026).
# Columns and labels:
# [1] = test system: chromatin-bound p-MED1/MED1; assay: Chromatin-bound protein extraction and immunoblot; format: cell-based, human; settings: DHT-stimulated LNCaP, 6 h; THZ1 100 nM, enzalutamide 5 μM
# Procedure: Chromatin bound protein extraction was performed following the protocol described in Pawar et al. Briefly, 10 million cells were collected and washed with DPBS, and were resuspended in 250 μl Buffer A (10 mM HEPES pH 7.9, 10 mM KCl, 1.5 mM MgCl2, 0.34 M sucrose, 10% glycerol, 1 mM DTT) supplemented with 0.1% TritonX-100 and incubated on ice for 10 min. The nuclei pellet was collected by centrifugation at 1300×g for 5 min at 4° C., washed in Buffer A and centrifuged again with the same settings. The nuclear pellet was then resuspended in Buffer B (3 mM EDTA, 0.2 mM EGTA, 1 mM DTT) and incubated on ice for 30 min. The chromatin pellet was collected by centrifugation at 1700×g for 5 min at 4° C., washed in Buffer B and centrifuged again with the same settings. The proteins were incubated on ice in Buffer B with 150 mM NaCl for 20 min and centrifuged at 1700×g for 5 min to remove proteins soluble in 150 mM salt concentrations. The pellet was then incubated in Buffer B with 300 mM NaCl on ice for 20 min and centrifuged again at 1700×g to obtain the final chromatin pellet. The chromatin pellet was dissolved in sample buffer, sonicated for 15 seconds, and boiled at 95° C. for 10 min. Samples were analyzed using Immunoblot analysis as described previously. All buffers were supplemented with Pierce protease inhibitor and Halt protease & phosphatase inhibitors.
# [2] = test system: AR p-S515; assay: Immunoblot of AR p-S515; format: cell-based, human; settings: LNCaP, 200 nM, 12 h
# Procedure: Cell lysates were prepared with RIPA buffer (Boston Bioproducts, BP-115DG)-10 mM Tris-HCl pH 7.5, 1 mM EDTA, 400 mM NaCl, 0.5% NP-40 and 1 mM DTT, supplemented with protease inhibitor cocktail (Pierce, A32965) and phosphatase inhibitor (Thermo, 1861280). For immunoblotting 200 μg total protein extract was boiled in sample buffer and 15-25 μg aliquots were separated by SDS-PAGE and transferred onto Polyvinylidene Difluoride membrane (GE Healthcare, IPVH00010). The membrane was incubated for one hour in blocking buffer [Tris-buffered saline, 0.1% Tween (TBS-T), 5% nonfat dry milk followed by overnight incubation on a rocker at 4° C. with the primary antibody. Following a wash with TBS-T, the blot was incubated with horseradish peroxidase-conjugated secondary antibody for 2 hrs on a rocker at room temperature. The blots were washed again and signals were visualized using enhanced chemiluminescence system as per manufacturer's protocol (GE Healthcare) or Kwik Quant Imager (Kindle Biosciences). […]
# [3] = biological target: CDK7 (Homo sapiens, UniProt P50613); assay: Luminescence-based CDK7 kinase activity on MED1 peptide; format: biochemical; settings: varying concentration of THZ1
# Sequence of CDK7 (P50613 whole entry): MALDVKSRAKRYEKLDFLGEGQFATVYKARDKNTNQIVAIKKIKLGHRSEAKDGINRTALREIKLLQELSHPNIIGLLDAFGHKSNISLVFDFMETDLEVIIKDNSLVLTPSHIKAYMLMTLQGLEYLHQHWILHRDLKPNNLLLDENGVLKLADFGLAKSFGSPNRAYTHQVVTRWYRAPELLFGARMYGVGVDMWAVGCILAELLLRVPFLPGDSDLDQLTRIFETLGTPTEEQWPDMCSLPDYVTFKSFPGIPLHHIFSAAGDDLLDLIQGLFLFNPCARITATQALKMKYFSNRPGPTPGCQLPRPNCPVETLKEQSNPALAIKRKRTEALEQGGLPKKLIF
# Sequence of CDK7 (P51946 whole entry partner): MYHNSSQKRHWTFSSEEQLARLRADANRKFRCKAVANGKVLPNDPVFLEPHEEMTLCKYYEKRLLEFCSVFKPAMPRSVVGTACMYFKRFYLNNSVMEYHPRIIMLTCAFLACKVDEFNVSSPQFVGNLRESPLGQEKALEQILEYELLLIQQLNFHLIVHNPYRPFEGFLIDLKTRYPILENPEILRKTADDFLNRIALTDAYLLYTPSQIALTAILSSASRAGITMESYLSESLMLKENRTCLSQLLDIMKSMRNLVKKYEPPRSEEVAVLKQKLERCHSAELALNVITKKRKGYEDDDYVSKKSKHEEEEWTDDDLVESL
# Sequence of CDK7 (P51948 whole entry partner): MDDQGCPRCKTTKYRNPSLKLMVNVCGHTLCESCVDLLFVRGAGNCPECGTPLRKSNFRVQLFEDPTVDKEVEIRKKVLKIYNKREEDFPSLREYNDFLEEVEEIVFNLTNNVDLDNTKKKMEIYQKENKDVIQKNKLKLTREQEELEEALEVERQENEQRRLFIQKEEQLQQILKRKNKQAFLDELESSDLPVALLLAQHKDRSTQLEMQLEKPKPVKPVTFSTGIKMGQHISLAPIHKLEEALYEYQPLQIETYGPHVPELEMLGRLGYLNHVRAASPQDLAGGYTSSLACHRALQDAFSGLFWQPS
# Procedure: For luminescence-based CDK7 kinase activity analysis wild type MED1-peptide “[sequence]” and mutant MED1-peptide “[sequence]” (GenScript, U2051EC280_1, U2051EC280_3) were used. Following the above protocol, briefly after 60 min incubation, post addition of CAK complex, ADP-GLOW reagent (Promega, V6930) was thawed and 25 ul of the reagent was added to each well, the plate was covered with aluminum foil and incubated at room temperature (RT) for 45 min. After the incubation Kinase-Detection reagent (BPS Bioscience, 79603) was thawed and 50 ul of the reagent was added to each well and incubated for another 45 min at RT under dark conditions. After 45 min incubation luminescence was measured using the microplate reader (Note: in luminescence-based kinase assay, CAK-complex+CTD-peptide (BPS Bioscience)+ATP was used as a positive control, were as CAK complex+Human MED1 protein without ATP was used as a negative control to subtract the background readings).
# [4] = test system: AR target genes; assay: qRT-PCR of DHT-induced AR target gene expression; format: cell-based, human; settings: LNCaP and VCaP, 100 nM THZ1
# Procedure: For AR signaling stimulation experiments, cells were plated in complete media at required confluency. After 24 h cells were washed with DPBS and cultured in RPMI/DMEM without Phenol Red (Invitrogen, 11835030) and 10% charcoal-dextran stripped FBS (Gemini BioProducts, 100-119) for 72 h. Cells were then stimulated with 10 nM DHT for the specific time points.
# Total RNA was isolated from cells using miRNeasy Mini Kit (Qiagen, 74106) and cDNA was synthesized from 1 μg total RNA using SuperScriptIV (Life Technologies, 18090200). qRT-PCR was performed using Fast SYBR Master Mix (Life Technologies, 4385617) or Taqman Fast Advance MMIX (Life Technologies, 4444964), and analyzed on QuantStudio3 (Applied Biosystems, USA). The target mRNA expression was quantified using ΔΔCt method, as normalized to GAPDH transcript levels. Primers were designed using Primer3 Input (version 0.4.0) (bioinfo.ut.ee/primer3-0.4.0/primer3) and synthesized by Integrated DNA Technologies.
# [5] = test system: AR-positive LNCaP and VCaP cells; assay: Annexin V-FITC apoptosis analysis; format: cell-based, human
# Procedure: (§1) Apoptosis induction was quantified using the Annexin-V and FITC Apoptosis Kit, as per manufacturer's instructions. Briefly LNCaP, VCaP, DU145 and PC3 cells were plated at a density of 5×10^5 cells per well in a 6-well culture plate. After subsequent treatments, the cells were harvested following incubation with a staining solution containing 10 μL propidium iodide and 5 μL Annexin for 10 min and analyzed by flow cytometry (BD FACS Aria II, BD Biosciences, San Jose).
# [6] = test system: AR-negative PC3 and DU145 cells; assay: Annexin V-FITC apoptosis analysis; format: cell-based, human
# Procedure: as §1
smiles,measurement,setting,value
CN(C)C/C=C/C(=O)Nc1ccc(C(=O)Nc2cccc(Nc3ncc(Cl)c(-c4c[nH]c5ccccc45)n3)c2)cc1 [THZ1],chromatin-bound levels of p-MED1/MED1,[1],complete loss in the chromatin-bound levels of p-MED1/MED1
same,AR p-S515 levels,[2],did not reduce AR p-S515 levels
same,CDK7-mediated phosphorylation of the T1457 wildtype peptide,[3],inhibited by THZ1 treatment in a dose-dependent manner
same,DHT-induced AR target gene expression,[4],phenocopied the reduction in DHT-induced gene expression
same,apoptosis,[5],induced robust apoptosis
same,apoptosis,[6],not observed
